Laboratory results published in PubChem BioAssay (NCI).
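Assay format: 96-well plates, 48-hour exposure. GI50 = concentration required for 50% inhibition of growth. The concentration for full growth arrest is given as TGI.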

Key:
Assay in all cases: growth of human tumour cells (NCI), 48 h
[1] = system: SF-539 CNS
[2] = system: OVCAR-5 ovarian
[3] = system: EKVX NSCLC
[4] = system: NCI/ADR-RES ovarian
[5] = system: U251 CNS
[6] = system: HS 578T breast
[7] = system: SK-MEL-5 melanoma
[8] = system: BT-549 breast
[9] = system: SK-MEL-2 melanoma
[10] = system: CCRF-CEM leukemia
[11] = system: MDA-MB-435
[12] = system: SW-620 colon
[13] = system: HCC-2998 colon
[14] = system: HT29 colon
[15] = system: A498 renal
[16] = system: MCF7 breast
[17] = system: PC-3 prostate
[18] = system: SK-MEL-28 melanoma
[19] = system: OVCAR-8 ovarian
[20] = system: A549 NSCLC
[21] = system: UACC-257 melanoma
[22] = system: RXF 393 renal
[23] = system: NCI-H23 lung
[24] = system: HOP-92 NSCLC
[25] = system: 786-0 renal
[26] = system: LOX IMVI melanoma
[27] = system: HL-60(TB) leukemia
[28] = system: M14 melanoma
[29] = system: KM12 colon
[30] = system: SNB-19 CNS
[31] = system: MALME-3M melanoma
[32] = system: MDA-MB-231 breast
[33] = system: UO-31 renal
[34] = system: SR leukemia
[35] = system: SK-OV-3 ovarian
[36] = system: OVCAR-4 ovarian
[37] = system: SN12C renal
[38] = system: SF-268 CNS
[39] = system: DU-145 prostate
[40] = system: SF-295 CNS
[41] = system: NCI-H522 lung
[42] = system: CAKI-1 renal
[43] = system: ACHN renal
[44] = system: HCT-15 colon
[45] = system: NCI-H460 lung
[46] = system: RPMI-8226 leukemia
[47] = system: HOP-62 NSCLC
[48] = system: T-47D breast
[49] = system: MOLT-4 leukemia
[50] = system: COLO 205 colon
[51] = system: UACC-62 melanoma
[52] = system: OVCAR-3 ovarian
[53] = system: NCI-H226 lung
[54] = system: HCT-116 colon
[55] = system: SNB-75 CNS
[56] = system: K-562 leukemia
[57] = system: IGROV1 ovarian
[58] = system: TK-10 renal

Q: What does the source list for O=C1Nc2cc(Cl)ccc2/C1=C\c1c(-c2ccc(F)cc2)nc2ccccn12?
A: GI50 [1]: 915 nM; TGI [1]: 2950 nM; GI50 [2]: 1700 nM; TGI [2]: 5810 nM; GI50 [3]: 2770 nM; TGI [3]: > 100000 nM; GI50 [4]: 277 nM; TGI [4]: 1060 nM; GI50 [5]: 541 nM; TGI [5]: 2090 nM; GI50 [6]: 1660 nM; TGI [6]: > 20400 nM; GI50 [7]: 559 nM; TGI [7]: 2040 nM; GI50 [8]: 1210 nM; TGI [8]: 5680 nM; GI50 [9]: 458 nM; TGI [9]: 2190 nM; GI50 [10]: 832 nM; TGI [10]: > 100000 nM; GI50 [11]: 167 nM; TGI [11]: 519 nM; GI50 [12]: 445 nM; TGI [12]: 2600 nM; GI50 [13]: 1100 nM; TGI [13]: 2880 nM; GI50 [14]: 389 nM; TGI [14]: 1340 nM; GI50 [15]: 1310 nM; TGI [15]: 6030 nM; GI50 [16]: 387 nM; TGI [16]: 2420 nM; GI50 [17]: 1140 nM; TGI [17]: 5390 nM; GI50 [18]: 995 nM; TGI [18]: 4590 nM; GI50 [19]: 1980 nM; TGI [19]: 8210 nM; GI50 [20]: 690 nM; TGI [20]: 2150 nM; GI50 [21]: 5020 nM; TGI [21]: 48500 nM; GI50 [22]: 631 nM; TGI [22]: 2190 nM; GI50 [23]: 765 nM; TGI [23]: 4450 nM; GI50 [24]: 4420 nM; TGI [24]: 26500 nM; GI50 [25]: 998 nM; TGI [25]: 2590 nM; GI50 [26]: 723 nM; TGI [26]: 2650 nM; GI50 [27]: 346 nM; TGI [27]: 1460 nM; GI50 [28]: 510 nM; TGI [28]: 2570 nM; GI50 [29]: 573 nM; TGI [29]: > 100000 nM; GI50 [30]: 1150 nM; TGI [30]: 22100 nM; GI50 [31]: 690 nM; TGI [31]: 2410 nM; GI50 [32]: 1480 nM; TGI [32]: 6380 nM; GI50 [33]: 686 nM; TGI [33]: 2700 nM; GI50 [34]: 112 nM; TGI [34]: > 100000 nM; GI50 [35]: 1050 nM; TGI [35]: 2420 nM; GI50 [36]: 1450 nM; TGI [36]: 3000 nM; GI50 [37]: 1030 nM; GI50 [38]: 1290 nM; TGI [38]: > 24600 nM; GI50 [39]: 1490 nM; GI50 [40]: 376 nM; TGI [40]: 1730 nM; GI50 [41]: 239 nM; TGI [41]: 919 nM; GI50 [42]: 498 nM; TGI [42]: 2130 nM; GI50 [43]: 1250 nM; TGI [43]: 3220 nM; GI50 [44]: 686 nM; TGI [44]: 7260 nM; GI50 [45]: 408 nM; TGI [45]: 1490 nM; GI50 [46]: 1360 nM; GI50 [47]: 916 nM; TGI [47]: 2290 nM; GI50 [48]: 1120 nM; TGI [48]: 2960 nM; GI50 [49]: 563 nM; TGI [49]: > 100000 nM; GI50 [50]: 552 nM; TGI [50]: 1940 nM; GI50 [51]: 546 nM; TGI [51]: 12400 nM; GI50 [52]: 424 nM; TGI [52]: 2970 nM; GI50 [53]: 1320 nM; TGI [53]: 3650 nM; GI50 [54]: 444 nM; TGI [54]: 1630 nM; GI50 [55]: 304 nM; TGI [55]: 1340 nM; GI50 [56]: 320 nM; TGI [56]: > 100000 nM; GI50 [57]: 1020 nM; TGI [57]: 5820 nM; GI50 [58]: 1380 nM; TGI [58]: 2990 nM
